# Experimental data: patent US11965100B2, “Aggregation-induced emission luminogens useful for cancer cell discrimination and monitoring” (The Hong Kong University of Science and Technology, priority 2020, dated 2024)
# Assays:
# HeLa cells = assay: Two-photon imaging in live cells; type: cell-based; conditions: 2 μM, 30 min, λex 800 nm
# Protocol: (§1) FIG. 22 (A) Two-photon microscopy images of live HeLa cells stained with 2 μM IVP-02 for 30 min. λex=800 nm, λem=495-540 nm. Scale bar=20 μm. (B) Viability of A549 cells after incubation with IVP-02, 04, 06, 22, 42, and 62 at different concentrations for 24 h.
# Given the high two-photon absorption cross section values of IVP-02 excited by 800 nm, we performed in vitro two-photon imaging of IVP-02 in live HeLa cells.
# A549 and HLF cells = assay: CLSM imaging of A549 and HLF cells seeded on different cover glasses in the same dish; type: cell-based, human; conditions: 2 μM, 30 min
# Protocol: FIG. 5 CLSM images of live cancer cells (A549 and HeLa) co-cultured with normal cells (COS7 and HLF) (A), and the images of A549 and HLF cells seeded on different cover glasses (Scale bar=20 μm) (B) stained with 2 μM IVP-02 for 30 min (Scale bar=50 μm), respectively. λex=488 nm, λem=500-650 nm.
# FIG. 10 CLSM images of live cancer cells (A549) co-cultured with normal cells (COS7) (A), and the images of A549 and HLF cells seeded on different cover glasses Scale bar=20 μm (B) stained with 2 μM IVP-02, 04, 06, 22, 42, and 62 for 30 min Scale bar=50 μm, respectively. (The first column in B is the same as FIG. 3B) λex=488 nm, λem=500-650 nm.
# The bioimaging properties of IVP-02 in live cells were investigated by confocal laser scanning microscopy (CLSM). Cancer cells (A549 and HeLa) and normal cells (COS7 and HLF) were stained with IVP-02, respectively. […] So IVP-02 holds the high potential to differentiate cancer and normal cells. To verify this speculation, cancer and normal cells were co-cultured and stained with IVP-02. […] To precisely confirm the selectivity of IVP-02 to cancer cells, cancer cells A549 and normal cells HLF (A549 and HLF are both human lung cells) were seeded on different cover glasses, respectively. Then the two cover glasses were put in the same dish and stained with IVP-02 at the same time.
# Cancer cells A549 co-cultured with normal cells COS7 were stained with these molecules, respectively. […] Then HeLa cells co-cultured with COS7 cells (FIG. 11), and A549 cells co-cultured with HLF cells (FIG. 12) were also stained with these molecules, the results were similar with that in A549 cells co-cultured with COS7 cells. In addition to co-culturing, A549 cells and HLF cells were also seeded on different cover glasses and stained with these molecules. […] Based on the imaging results above, it can be concluded that the selectivity of these IVP molecules to cancer cells is also based on the length of alkyl chain at pyridinium salt side. Lengthening the alkyl chain at the pyridinium salt side will eliminate the selectivity to cancer cells.
# A549 and HeLa cells = assay: Mitochondrion-nucleolus migration on H2O2 treatment; type: cell-based; conditions: pre-stained 2 μM 30 min, 10 mM H2O2 10 min
# Protocol: FIG. 17 Live A549 and HeLa cells were pre-stained with 2 μM IVP-02 for 30 min, and treated with 10 mM H2O2 for 10 min. λex=488 nm, λem=500-650 nm. Scale bar=20 μm.
# Monitoring cell viability is a highly valuable task for the fundamental researches in biology, pathology, and medicine. Then we investigated whether IVP-02 could monitor cell viability. Δψm is a very important indicator to characterize cell viability. With the loss of cell viability, Δψm would decrease, while with the recovery of cell viability, Δψm would also recover to the normal level. […] Carbonyl cyanide m-chlorophenyl hydrazone (CCCP) is a type of protonophore and can cause rapid acidification of mitochondria by collapsing Δψm. Cancer cells A549 were pre-stained with IVP-02 for 30 min. In FIG. 15A, in the beginning, IVP-02 stained mitochondria clearly. […] Hydrogen peroxide (H2O2) can inhibit the oxidation respiratory chain that would cause the loss of cell viability. Then live A549 and HeLa cells were pre-stained with IVP-02, and treated with 10 mM H2O2.
# A549 cells = assay: Cytotoxicity by standard MTT assay; type: cell-based, human; conditions: summary statement
# Protocol: as §1
# The potential long-term cytotoxicity of bioprobes should be carefully considered for imaging in live cells. Then we studied the cytotoxicity of these IVP molecules to live A549 cells by standard MTT assay. […] While the incubation concentration is 10 μM, the cell viability was between 60% and 80%, showing certain cytotoxicity. Nonetheless, all cell imaging experiments in this work were conducted at low concentration 2 μM, which is reasonable and acceptable.
# [1] = Two-photon absorption cross section in DMSO, fluorescein as standard; type: physicochemical
# Excerpt: In addition, IVP-02 emits redder fluorescence in solid state than that in solution. To testify the mechanism of the red shift in solid state of IVP-02, its crystal has been analyzed in FIGS. 2G and 2H. The molecules of IVP-02 are anti-parallelly stacked and form multimers in the crystalline state. The short intermolecular stacking distances of the multimers are 3.636 Å, 3.455 Å, 3.394 Å, 3.375 Å, 3.466 Å, and 3.465 Å, indicating strong intermolecular interactions inside the multimers. So the red-shift emission in solid state should be attributed to the intermolecular π-π interactions induced by the short contact between the molecules. […] The TPEF spectra of IVP-02 excited at different pulse wavelengths (780-900 nm) in DMSO were measured in FIG. 2F. The highest […] was 287 GM excited at 800 nm. Such high δ value is beneficial for two-photon imaging in live cells and deep tissues.
# [2] = system: A549 co-cultured with COS7 cells, HeLa co-cultured with COS7 cells; assay: CCCP treatment of cancer cells co-cultured with normal cells; type: cell-based; conditions: A549 or HeLa with COS7, 2 μM, 20 μM CCCP added then removed
# Protocol: FIG. 15 Live A549 cells (A) and live A549 co-cultured with COS 7 cells, live HeLa co-cultured with COS7 cells (B) were pre-stained with 2 μM IVP-02 for 30 min, and treated with 20 μM CCCP for 5 min. Then CCCP was removed away and fresh culture medium was added for another 5 min. λex=488 nm, λem=500-650 nm. Scale bar=20 μm.
# To test whether IVP-02 could selectively stain cancer cells and monitor their viability, cancer cells and normal cells were co-cultured and stained with IVP-02. […] After CCCP was removed, the fluorescence in nucleolus disappeared, while the fluorescence in mitochondria recovered gradually. […] The same experiments were also carried out in HeLa cells co-cultured with COS7 cells shown in FIG. 15B and similar phenomena were observed.
smiles,measurement,setting,value
CC[n+]1ccc(/C=C/c2c[nH]c3ccccc23)cc1 [IVP-02],two-photon fluorescence imaging,HeLa cells,bright two-photon fluorescence
same,staining of A549 and HLF cells on different cover glasses,A549 and HLF cells,only A549 cells on the upper cover glass were illuminated
same,fluorescence after adding H2O2,A549 and HeLa cells,strong fluorescence was observed in nucleolus
same,cytotoxicity,A549 cells,low cytotoxicity
same,Two-photon absorption cross section (δ),[1]; λex 780 nm,106 GM
same,Two-photon absorption cross section (δ),[1]; λex 800 nm,287 GM
same,Two-photon absorption cross section (δ),[1]; λex 820 nm,173 GM
same,Two-photon absorption cross section (δ),[1]; λex 840 nm,194 GM
same,Two-photon absorption cross section (δ),[1]; λex 860 nm,271 GM
same,Two-photon absorption cross section (δ),[1]; λex 880 nm,227 GM
same,Two-photon absorption cross section (δ),[1]; λex 900 nm,78 GM
same,selective staining and viability monitoring in co-cultured cells,[2],could selectively stain cancer cells and monitor their viability through mitochondrion-nucleolus migration
